Measurements from US20210395313A1, “PEPTIDE PAC1 ANTAGONISTS” (AMGEN INC., priority 2017, published 2021).
Where a SMILES comes first, the peptide text is derived from it. Bridges are numbered along the chain shown (N, C = ends). Where no end group is shown, it is not given here. [ ]: non-standard residue; d: D form. Pra = C#CC[C@H](N)C(=O)O

Key:
human PAC1 receptor = target: T1, human PAC1 receptor (Homo sapiens, UniProt P41586); assay: LANCE Ultra cAMP accumulation antagonist assay in SHSY-5Y cells; type: cell-based;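 note: inhibition of cAMP accumulation evoked by PAC1 agonist at its EC80 in SHSY-5Y cells endogenously expressing receptor, 30 min preincubation then 15 min agonist, TR-FRET readout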
T1 construct: SHSY-5Y (human neuroblastoma cell line) and RG-2 (rat glioma cell line) cells endogenously express human and rat PAC1 receptors, respectively; endogenous in cells; host or cells: SHSY-5Y human neuroblastoma cells
T1 sequence (P41586 21-468): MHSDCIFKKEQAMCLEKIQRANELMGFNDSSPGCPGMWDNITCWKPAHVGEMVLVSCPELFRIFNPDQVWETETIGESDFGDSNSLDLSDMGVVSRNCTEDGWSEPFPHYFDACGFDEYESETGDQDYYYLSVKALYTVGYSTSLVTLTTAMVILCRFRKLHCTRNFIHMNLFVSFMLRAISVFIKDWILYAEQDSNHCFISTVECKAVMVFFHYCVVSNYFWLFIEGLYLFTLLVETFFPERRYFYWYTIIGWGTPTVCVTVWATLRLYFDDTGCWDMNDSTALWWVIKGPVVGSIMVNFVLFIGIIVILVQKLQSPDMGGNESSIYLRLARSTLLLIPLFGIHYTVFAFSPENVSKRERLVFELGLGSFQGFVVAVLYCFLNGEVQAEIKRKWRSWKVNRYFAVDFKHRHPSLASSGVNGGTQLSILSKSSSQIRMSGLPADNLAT
Experimental: In order to determine the potency of peptide antagonists at the PAC1 receptor, functional cAMP accumulation assays using LANCE Ultra cAMP assay kit to measure the agonist and antagonist activity of PAC1 peptides were used. SHSY-5Y (human neuroblastoma cell line) and RG-2 (rat glioma cell line) cells endogenously express human and rat PAC1 receptors, respectively. Agonist activity of PAC1 peptides was tested by incubating with SHSY-5Y at 2,000 cells per well or RG-2 at 5,000 cells per well for 15 minutes at room temperature. PAC1 receptor agonist PACAP38 or maxadilan was included as a positive control. The reaction was stopped by adding detection mixture, europium (Eu) chelate-labeled cAMP tracer and cAMP-specific monoclonal antibodies labeled with the ULight™ dye, to all wells followed by a 60-minute incubation at room temperature. The assay plates were then read on an EnVision instrument at an emission wavelength of 665 and 615 nm and data were analyzed using Genedata Screener or GraphPad Prism software. A similar procedure was used in the antagonist assays by using a fixed concentration of PAC1 agonist. The concentrations of agonists were chosen based on their ECK) values at PAC1 receptors in SHSY-5Y or RG-2 cells. SHSY-5Y or RG-2 cells were added into 96-well half-area white plates. Serially diluted PAC1 peptides at ten concentrations were added and incubated for 30 minutes at room temperature. PAC1 agonist at EC80 concentration was then added and further incubated for 15 minutes at room temperature. The reaction was stopped by adding detection mixture to all wells followed by a 60-minute incubation at room temperature. The assay plates were read and analyzed the same way as that of agonist assay. Cells, agonists, and PAC1 peptides were prepared in freshly made assay buffer (F-12, 0.5 mM IBMX, 0.1 or 0.4% BSA (pH 7.4)). Detection mixture was made by mixing a 1/50 dilution of the Eu-cAMP tracer stock solution in cAMP Detection Buffer and a 1/150 dilution of the ULight-anti-cAMP stock solution in cAMP Detection Buffer. Europium (Eu) chelate-labeled cAMP tracer, cAMP-specific monoclonal antibodies labeled with the ULight™ dye, BSA, and detection buffer were provided in LANCE Ultra cAMP Kit from PerkinElmer

rat PAC1 receptor = target: T2, rat PAC1 receptor (Rattus norvegicus, UniProt P32215); assay: LANCE Ultra cAMP accumulation antagonist assay in RG-2 cells; type: cell-based;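 note: RG-2 rat glioma cells endogenously expressing PAC1, test peptide preincubated 30 min, then PAC1 agonist added at its EC80 for 15 min, cAMP accumulation read by LANCE Ultra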
T2 construct: SHSY-5Y (human neuroblastoma cell line) and RG-2 (rat glioma cell line) cells endogenously express human and rat PAC1 receptors, respectively; endogenous in cells; host or cells: RG-2 rat glioma cells
T2 sequence (P32215 20-523): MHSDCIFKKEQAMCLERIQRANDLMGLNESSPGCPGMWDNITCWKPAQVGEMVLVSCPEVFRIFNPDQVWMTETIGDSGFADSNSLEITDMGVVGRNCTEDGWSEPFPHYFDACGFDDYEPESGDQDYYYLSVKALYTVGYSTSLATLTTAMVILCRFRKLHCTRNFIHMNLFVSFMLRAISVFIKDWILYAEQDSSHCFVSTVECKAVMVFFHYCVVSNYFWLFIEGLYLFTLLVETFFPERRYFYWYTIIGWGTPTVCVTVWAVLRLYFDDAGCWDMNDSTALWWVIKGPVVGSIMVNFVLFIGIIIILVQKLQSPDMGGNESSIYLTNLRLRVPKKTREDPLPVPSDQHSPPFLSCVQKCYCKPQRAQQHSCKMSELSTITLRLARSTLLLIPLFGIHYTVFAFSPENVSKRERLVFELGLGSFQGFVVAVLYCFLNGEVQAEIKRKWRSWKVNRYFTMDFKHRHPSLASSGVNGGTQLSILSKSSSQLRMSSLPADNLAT

PAC1 = target: T3, PAC1 (Rattus norvegicus, UniProt P32215); assay: Rat maxadilan-induced increase in blood flow (MIIBF) PD model, laser Doppler imaging; type: in vivo; details: for inhibition of MIIBF (dermal blood flow): single bolus i.v., lowest dose of 0.1 mg/kg, 5 min prior to maxadilan, 35 min post peptide treatment; for inhibition of maxadilan-induced increase in DBF: single bolus s.c., lowest dose of 0.3 mg/kg, 15 min prior to maxadilan, 45 min post peptide treatment
T3 construct: Naive male Sprague Dawley® rats aged 8-12 weeks at the time of the study were purchased from Charles River Laboratories; tissue Charles River Laboratories; host or cells: live male Sprague Dawley rats; dermal blood flow on abdominal skin
T3 sequence (P32215 20-523): T2 sequence (P32215 20-523)
Experimental: PAC1 peptide antagonists were also evaluated in an in vivo pharmacodynamic model—a model of maxadilan-induced increase in blood flow.
Naive male Sprague Dawley® rats aged 8-12 weeks at the time of the study were purchased from Charles River Laboratories. Animals were group-housed in non-sterile, ventilated micro-isolator housing in Amgen Assessment and Accreditation of Laboratory Animal Committee (AAALAC)-accredited facility. Animals had ad libitum access to pelleted feed (Harlan Teklad 2020X, Indianapolis, IN) and water (on-site generated reverse osmosis) via automatic watering system.
All PAC1 peptides were tested in a rat maxadilan-induced increase in blood flow (MIIBF) pharmacodynamic (PD) model with a laser Doppler imaging. A dosing solution of maxadilan (Bachem, H6734.0500) was prepared fresh daily by diluted maxadilan stock solution (0.5 mg/mL) in 1× PBS to the final concentration of 0.5 μg/mL. All tested peptides were prepared in 1× PBS at different concentrations depend on the dose required for the experiment and given in a single bolus i.v. or s.c. injection. A laser Doppler imager (LDI-2, Moor Instruments, Ltd, Wilmington, Del.) was used to measure dermal blood flow (DBF) on the shaved skin of the rat abdomen with a low-power laser beam generated by a 633 nm helium-neon bulb. The measurement resolution was 0.2 to 2 mm, with scanning distances between the instrument aperture and the tissue surface of 30 cm. In this report, DBF was measured and expressed as % change from baseline [100×(individual post-CAP flux-individual baseline flux)/individual baseline flux] and further calculated to % Inhibition to quantify the magnitude of drug effect [Mean of vehicle % change from BL−individual drug treated rat % change from BL)/Mean of vehicle % change from BL].
On the test day, following anesthetization with propofol, the rat's abdominal area was shaved and each animal was placed in a supine position on a temperature-controlled circulating warm-water pad to maintain a stable body temperature during the study. After a 10 to 15 minute stabilization period, a rubber O-ring (0.925 cm inner diameter, O-Rings West, Seattle, Wash.) was placed on the rat abdomen without directly positioning it over a visible blood vessel while the rat placed in a supine position on a temperature-controlled circulating warm-water pad to maintain a stable body temperature during the study. After placement of an O-ring on the selected area, a baseline (BL) DBF measurement was taken. After the BL scan, PAC1 peptides were administrated either 5 min for i.v., or 15 min for s.c. then followed by 20 μL (in 0.5 μg/mL) intradermal injection of maxadilan at the center of the O-ring. The post-maxadilan DBF was measured at 30 min and the post peptides time was 35 min for i.v. and 45 min for s.c. respectively. The O-ring serves as an area of interest in which the DBF will be analyzed within the O-ring.
All DBF results were expressed as the mean±SEM. A one-way ANOVA followed by Dunnett's Multiple Comparison Test (MCT) was used to assess the statistical significance of PAC1 peptides effects relative to the vehicle within the study. A p<0.05 was used to determine significance between any two groups.

In the case of “GCDATCQFRKAIDDCQKQAHHSNVPGSVFKACMKQKKKEFKAG-NH2 (disulfide 2-6, 15-32) [SEQ ID NO 181]”, the IC50 (human PAC1 receptor) is reported as 1 to 100 nM, the IC50 (rat PAC1 receptor) is reported as 0.01 to 1 nM and the “inhibition of MIIBF (dermal blood flow)” value (PAC1) is reported as “statistically significant inhibition”.
For `CC[C@H](C)[C@H](NC(=O)[C@H](C)NC(=O)[C@H](CCCCN)NC(=O)[C@H](CCCNC(=N)N)NC(=O)[C@H](Cc1ccccc1)NC(=O)[C@H](CCC(N)=O)NC(=O)[C@@H]1CSSC[C@H](N)C(=O)N[C@@H](CC(=O)O)C(=O)N[C@@H](C)C(=O)N[C@@H]([C@@H](C)O)C(=O)N1)C(=O)N[C@@H](CC(=O)O)C(=O)N[C@@H](CC(=O)O)C(=O)N[C@H]1CSSC[C@@H](C(=O)N[C@@H](CCSC)C(=O)N[C@@H](CCCCN)C(=O)N[C@@H](CCC(N)=O)C(=O)N[C@@H](CCCCN)C(=O)N[C@@H](CCCCN)C(=O)N[C@@H](CCCCN)C(=O)N[C@@H](CCC(=O)O)C(=O)N[C@@H](Cc2ccccc2)C(=O)N[C@@H](CCCCN)C(=O)N[C@@H](C)C(=O)NCC(N)=O)NC(=O)[C@H](C)NC(=O)[C@H](CCCCN)NC(=O)[C@H](Cc2ccccc2)NC(=O)[C@H](C(C)C)NC(=O)[C@H](CO)NC(=O)CNC(=O)[C@@H]2CCCN2C(=O)[C@H](C(C)C)NC(=O)[C@H](CC(N)=O)NC(=O)[C@H](CO)NC(=O)[C@H](Cc2c[nH]cn2)NC(=O)[C@H](Cc2c[nH]cn2)NC(=O)[C@H](C)NC(=O)[C@H](CCC(N)=O)NC(=O)[C@H](CCCCN)NC(=O)[C@H](CCC(N)=O)NC1=O` [SEQ ID NO 233], the IC50 (human PAC1 receptor) was 1 to 100 nM, the IC50 (rat PAC1 receptor) was 0.01 to 1 nM and the “inhibition of MIIBF (dermal blood flow)” value (PAC1) was “statistically significant inhibition”.
For “CDATCQFRKAIDDCVKQAHHSNVPGSVFKACMKQKKKEFKAG-NH2 (disulfide 1-5, 14-31) [SEQ ID NO 179]”, the IC50 (human PAC1 receptor) was 0.01 to 1 nM, the IC50 (rat PAC1 receptor) was 0.01 to 1 nM and the “inhibition of MIIBF (dermal blood flow)” value (PAC1) was “statistically significant inhibition”.
In the case of `CC[C@H](C)[C@H](NC(=O)[C@H](C)NC(=O)[C@H](CCCCN)NC(=O)[C@H](CCCNC(=N)N)NC(=O)[C@H](Cc1ccccc1)NC(=O)[C@H](CCC(N)=O)NC(=O)[C@@H]1CSSC[C@H](N)C(=O)N[C@@H](CC(=O)O)C(=O)N[C@@H](C)C(=O)N[C@@H]([C@@H](C)O)C(=O)N1)C(=O)N[C@@H](CC(=O)O)C(=O)N[C@@H](CC(=O)O)C(=O)N[C@H]1CSSC[C@@H](C(=O)N[C@@H](CCSC)C(=O)N[C@@H](CCCCN)C(=O)N[C@@H](CCC(N)=O)C(=O)N[C@@H](CCCCN)C(=O)N[C@@H](CCCCN)C(=O)N[C@@H](CCCCN)C(=O)N[C@@H](CCC(=O)O)C(=O)N[C@@H](Cc2c[nH]c3ccccc23)C(=O)N[C@@H](CCCCN)C(=O)N[C@@H](C)C(=O)NCC(N)=O)NC(=O)[C@H](C)NC(=O)[C@H](CCCCN)NC(=O)[C@H](Cc2ccccc2)NC(=O)[C@H](C(C)C)NC(=O)[C@H](CO)NC(=O)[C@H](CO)NC(=O)[C@H](Cc2c[nH]cn2)NC(=O)[C@H](Cc2ccc(O)cc2)NC(=O)[C@H](C)NC(=O)[C@H](CCC(N)=O)NC(=O)[C@H](CCCNC(=N)N)NC(=O)[C@H](C)NC1=O` [SEQ ID NO 65] (H-CDATCQFRKAIDDCARQAYHSSVFKACMKQKKKEWKAG-NH2; disulfide 1-5, 14-27), the IC50 (human PAC1 receptor) is reported as 0.01 to 1 nM, the IC50 (rat PAC1 receptor) is reported as 0.01 to 1 nM and the “inhibition of maxadilan-induced increase in DBF” value (PAC1) is reported as “statistically significant inhibition”.
“CDATCQFRKAIDDCDRQAHHSNVPGSVFKACMKQKKKEWKAG-NH2 (disulfide 1-5, 14-31) [SEQ ID NO 163]” was tested, and the IC50 (human PAC1 receptor) was 0.01 to 1 nM, the IC50 (rat PAC1 receptor) was 0.01 to 1 nM and the “inhibition of maxadilan-induced increase in DBF” value (PAC1) was “statistically significant inhibition”.
With `CC[C@H](C)[C@H](NC(=O)[C@H](C)NC(=O)[C@H](CCCCN)NC(=O)[C@H](CCCNC(=N)N)NC(=O)[C@H](Cc1ccccc1)NC(=O)[C@H](CCC(N)=O)NC(=O)[C@@H]1CSSC[C@H](N)C(=O)N[C@@H](CC(=O)O)C(=O)N[C@@H](C)C(=O)N[C@@H]([C@@H](C)O)C(=O)N1)C(=O)N[C@@H](CC(=O)O)C(=O)N[C@@H](CC(=O)O)C(=O)N[C@H]1CSSC[C@@H](C(=O)N[C@@H](CCSC)C(=O)N[C@@H](CCCCN)C(=O)N[C@@H](CCC(N)=O)C(=O)N[C@@H](CCCCN)C(=O)N[C@@H](CCCCN)C(=O)N[C@@H](CCCCN)C(=O)N[C@@H](CCC(=O)O)C(=O)N[C@@H](Cc2ccccc2)C(=O)N[C@@H](CCCCN)C(=O)N[C@@H](C)C(N)=O)NC(=O)C(C)(C)NC(=O)[C@H](CCCCN)NC(=O)[C@H](Cc2ccccc2)NC(=O)[C@H](C(C)C)NC(=O)[C@H](CO)NC(=O)CNC(=O)[C@@H]2CCCN2C(=O)[C@H](C(C)C)NC(=O)[C@H](CC(N)=O)NC(=O)[C@H](CO)NC(=O)[C@H](Cc2c[nH]cn2)NC(=O)[C@H](Cc2c[nH]cn2)NC(=O)[C@H](C)NC(=O)[C@H](CCC(N)=O)NC(=O)[C@H](CCCCN)NC(=O)[C@H](CCC(N)=O)NC1=O` [SEQ ID NO 250] the IC50 (human PAC1 receptor) was 1 to 100 nM, the IC50 (rat PAC1 receptor) was 0.01 to 1 nM and the “inhibition of MIIBF (dermal blood flow)” value (PAC1) was “statistically significant inhibition”.
“CDATCQFRKAIDDCAKQAHHSNVPGSVFKACMKQKKKEFKAG-NH2 (disulfide 1-5, 14-31) [SEQ ID NO 180]” was tested, and the IC50 (human PAC1 receptor) was 0.01 to 1 nM, the IC50 (rat PAC1 receptor) was 0.01 to 1 nM and the “inhibition of MIIBF (dermal blood flow)” value (PAC1) was “statistically significant inhibition”. For the same compound, the “inhibition of maxadilan-induced increase in DBF” value (PAC1) was “statistically significant inhibition”.
For “SCDATCQFRKAIDDCQKQAHHSNVPGSVFKACMKQKKKEFKAG-NH2 (disulfide 2-6, 15-32) [SEQ ID NO 183]”, the IC50 (human PAC1 receptor) was 1 to 100 nM, the IC50 (rat PAC1 receptor) was 0.01 to 1 nM and the “inhibition of MIIBF (dermal blood flow)” value (PAC1) was “statistically significant inhibition”.
“CDATCQFRKAIDDCFWLASHSNVPGSVWKACMKQKKKEFKAG-NH2 (disulfide 1-5, 14-31) [compound 119]” showed an IC50 (human PAC1 receptor) of 0.01 to 1 nM and an IC50 (rat PAC1 receptor) of 0.01 to 1 nM.
With “CDATCQFRKAIDDCQ[Pra]QAHHSNVPGSVFKACMKQKKKEFKAG-NH2 (disulfide 1-5, 14-31) [compound 33]” the IC50 (human PAC1 receptor) was 1 to 100 nM and the IC50 (rat PAC1 receptor) was 0.01 to 1 nM.
“CDATCQFRKAIDDCVWFAWHSNVPGSVFKACMKQKKKEFKAG-NH2 (disulfide 1-5, 14-31) [compound 148]” was tested, and the IC50 (human PAC1 receptor) was 0.01 to 1 nM and the IC50 (rat PAC1 receptor) was 0.01 to 1 nM.
For “CDATCQFRKAIDDCAGRASHANVPGSVFKACMKQKKKEWKAGH-NH2 (disulfide 1-5, 14-31) [compound 425]”, the IC50 (human PAC1 receptor) was 0.01 to 1 nM and the IC50 (rat PAC1 receptor) was 0.01 to 1 nM.
